# Patent US20230295213A1, “CD73 INHIBITORS AND PHARMACEUTICAL USES THEREOF” (RISEN (SUZHOU) PHARMA TECH CO., LTD., priority 2018, published 2023)
# pIC50: −log10 of the molar value.
# Molecular target: CD73 (Homo sapiens (Human), UniProt P21589)
# Assay: CD73 enzyme inhibition assay (Malachite Green Phosphate Detection Kit)
# Type: biochemical
# Details: CD73 protein 0.5 μg/mL (2x), Tris-HCl pH 7.3, OD 620 nm; read-out: Potency (IC50 class), inhibitory activity in CD73 enzyme assay
# Description: To evaluate the inhibitory effect of selected compounds on CD73, Malachite Green Phosphate Detection Kit (R&D, Cat #DY996) was used. Briefly, compounds were dissolved and diluted to the desired concentration using phosphate-free buffer (Tris-HCl, pH 7.3). 25 μL of the compound solution was added to an equal volume of CD73 protein solution (2× concentration, 0.5 μg/mL, Novoprotein, Cat #C446), followed by a 5-minute incubation at room temperature. 10 μL of Malachite Green Reagent A was added to each well, mixed thoroughly and incubated for 10 minutes at room temperature. 10 μL of Malachite Green Reagent B was then added to each well, mixed thoroughly and incubated for 20 minutes at room temperature. Finally, the optical density of each well was determined using a microplate reader set to 620 nm.
# CD73, sequence (P21589 27-574): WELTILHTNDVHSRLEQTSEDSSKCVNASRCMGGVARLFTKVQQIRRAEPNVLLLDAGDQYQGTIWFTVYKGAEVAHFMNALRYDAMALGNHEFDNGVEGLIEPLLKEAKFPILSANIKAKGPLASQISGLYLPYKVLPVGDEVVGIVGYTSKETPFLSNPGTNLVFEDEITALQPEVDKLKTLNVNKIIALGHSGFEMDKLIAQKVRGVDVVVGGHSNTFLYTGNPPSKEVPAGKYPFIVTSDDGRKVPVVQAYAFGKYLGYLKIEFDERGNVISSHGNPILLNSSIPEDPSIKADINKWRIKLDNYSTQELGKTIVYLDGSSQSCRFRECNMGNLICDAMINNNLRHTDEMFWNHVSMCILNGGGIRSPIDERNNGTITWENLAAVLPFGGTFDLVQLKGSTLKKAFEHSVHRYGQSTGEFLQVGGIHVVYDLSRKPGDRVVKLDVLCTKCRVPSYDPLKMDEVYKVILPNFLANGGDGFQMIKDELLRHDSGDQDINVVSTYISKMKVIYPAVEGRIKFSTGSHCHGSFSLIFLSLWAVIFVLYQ
row,Structure (SMILES),pIC50
1,O=P(O)(O)CP(=O)(O)OC[C@H]1O[C@@H](n2cnc3c(N4C5CCC4CC(O)C5)nc(Cl)nc32)[C@@H](O)C1O (stereo partly shown) [Compound 51],> 8.00

# Same assay, conditions: qualitative statement
row,inhibitory activity in the CD73 enzyme assay,Structure (SMILES)
1,showed inhibitory activity,O=P(O)(O)CP(=O)(O)CC[C@H]1O[C@@H](n2cnc3c(NCc4ccccc4)nc(Cl)nc32)[C@@H](O)C1O (stereo partly shown) [a-1]
2,showed inhibitory activity,C[C@]12C[C@@H]3C[C@](C)(C1)C[C@@](Nc1nc(Cl)nc4c1ncn4[C@@H]1O[C@H](CCP(=O)(O)CP(=O)(O)O)C(O)[C@@H]1O)(C3)C2 (stereo partly shown) [a-9]
3,showed inhibitory activity,O=P(O)(O)CP(=O)(O)CC[C@H]1O[C@@H](n2cnc3c(N4CCC5(CCCCC5)C4)nc(Cl)nc32)[C@@H](O)C1O (stereo partly shown) [a-31]

# System: not listed separately
# Assay: Pharmacokinetic evaluation in ICR mice, intravenous
# Type: in vivo
# Details: mouse; ICR male mice, 1.0 mg/kg intravenous, plasma
# Description: A test compound (1.0 mg/kg) was administered to fasted ICR male mice via intravenous injection, and blood samples were collected at time points of 0.08, 0.25, 0.5, 1, 2, 4, 6, 8 and 24 h after the administration. Plasma sample was separated by centrifugation (8000 rpm) and stored at −80° C. until the sample was analyzed. Concentrations of the test compound in the plasma were determined by HPLC-MS/MS: the plasma was dispensed into appropriate tubes containing internal standard and methanol or acetonitrile. The tubes were mixed vigorously for 3 minutes to achieve deproteinization and then centrifuged at 8000 rpm for 5 minutes. The supernatant was transferred to an autosampler vial, injected into the chromatographic system, and quantified on MS/MS detector. Pharmacokinetic parameters including AUC0-t, Cmax, Tmax, t1/2, MRT, Cl and Vd were calculated using WinNonlin 6.3 software. Table 3 summarizes key PK parameters for test compounds (AUC(0-t): the area under the curve from time 0 to time t; AUC(0-∞): the area under the curve from time 0 to infinity; t1/2: Half-life; CL: clearance; C0: the concentration of drug in blood if the drug molecules enter the circulation and are distributed immediately (i.e., at time 0)).
Structure (SMILES),AUC(0-inf) [ng·h/mL],AUC(0-t) [ng·h/mL],Cmax [ng/mL],half-life [h]
"C[C@H](Nc1cc(Cl)nc2c1cnn2[C@@H]1O[C@H](COP(=O)(O)CP(=O)(O)O)[C@@H](O)[C@H]1O)c1ccccc1F [Compound a, AB680, reference compound]",24200,24000,11700,3.41
"O=P(O)(O)CP(=O)(O)OC[C@H]1O[C@@H](n2cnc3c(N4CCC5(CCCCC5)C4)nc(Cl)nc32)[C@@H](O)C1O (stereo partly shown) [Compound b, reference compound]",9120,9110,15200,0.85
O=P(O)(O)CP(=O)(O)OC[C@H]1O[C@@H](n2cnc3c(N4CCC5(CCCc6ccccc65)C4)nc(Cl)nc32)[C@@H](O)C1O (stereo partly drawn) [d-6],6680,6670,7840,0.841
O=P(O)(O)CP(=O)(O)OC[C@H]1O[C@@H](n2cnc3c(N4CC5(CCCCC5)c5ccccc54)nc(Cl)nc32)[C@@H](O)C1O (stereo partly drawn) [d-7],197000,107000,12500,21.3
O=P(O)(O)CP(=O)(O)OC[C@H]1O[C@@H](n2cnc3c(N4CC5(CCCC5)c5ccccc54)nc(Cl)nc32)[C@@H](O)C1O (stereo partly drawn) [d-13],298000,108000,11600,39.5
O=P(O)(O)CP(=O)(O)OC[C@H]1O[C@@H](n2cnc3c(N4CC5(CCCCCC5)c5ccccc54)nc(Cl)nc32)[C@@H](O)C1O (stereo partly drawn) [d-22],167000,74100,8030,28.9

# The next lines start with the values.
AUC(0-inf) [ng·h/mL],AUC(0-t) [ng·h/mL],Cmax [ng/mL],half-life [h],Structure (SMILES)
6360,6360,8850,0.556,O=P(O)(O)CP(=O)(O)OC[C@H]1O[C@@H](n2cnc3c(N4CC5(CCc6ccccc65)C4)nc(Cl)nc32)[C@@H](O)C1O (stereo partly drawn) [d-1]
22500,19700,10700,2.95,O=P(O)(O)CP(=O)(O)OC[C@H]1O[C@@H](n2cnc3c(N4CC5(Cc6ccccc6C5)C4)nc(Cl)nc32)[C@@H](O)C1O (stereo partly drawn) [d-9]
9900,9860,8560,0.949,O=P(O)(O)CP(=O)(O)OC[C@H]1O[C@@H](n2cnc3c(N4CC5(CCCc6ccccc65)C4)nc(Cl)nc32)[C@@H](O)C1O (stereo partly drawn) [d-12]
121000,94000,15600,12.2,O=P(O)(O)CP(=O)(O)OC[C@H]1O[C@@H](n2cnc3c(N4CC5(CCC5)c5ccccc54)nc(Cl)nc32)[C@@H](O)C1O (stereo partly drawn) [d-20]

# Molecular target: Recombinant human 5′-nucleotidase (hCD73) (Homo sapiens (Human), UniProt P21589)
# Assay: CD73 enzyme inhibition assay (hCD73, AMP substrate, PiColorLock Gold phosphate detection)
# Type: biochemical
# Details: hCD73 1 nM solution, AMP 60 μM solution, 37° C. 20 min, absorbance 635 nm
# Description: Test compound solution preparation: Stock solution of a test compound was prepared in DMSO at 10 mM concentration. A series of preset 10-concentration solutions of a test compound were prepared by diluting the stock solution in 5-fold gradient dilution with DMSO.
# Assay buffer (lx): 20 mm Tris, 25 mM NaCl, 1 mM MgCl2, pH 7.5, 0.005% Tween-20 (freshly prepared, and ready for use).
# An aliquot of 0.25 μL of compound solution or DMSO (blank control) was added to each test well of a micro well plate. Recombinant human 5′-nucleotidase (hCD73) was diluted to 1 nM in assay buffer; and an aliquot of 25 μL hCD73 (1 nM) solution was added to the corresponding wells of the plate. The contents of the well were well-mixed, and the plate was covered with sealing film, centrifuged at 1000 rpm for 30 sec., followed by incubation at room temperature for 15 min. AMP, the substrate, was diluted to 60 μM concentration in the assay buffer. To each reaction well was added 25 μL of AMP solution. After mixing well, the plate was covered with sealing film, centrifuged at 1000 rpm for 30 sec., and incubated at 37° C. for 20 min. The absorbance signal (end point) was measured on SPARK plate reader at 635 nm (See PiColorLock™ Gold Phosphate Detection System (Abcam) test kit for reference).
# The reaction wells containing CD73 enzyme, substrate AMP and DMSO (no compound) were used as positive control, and the reaction wells containing substrate AMP and DMSO but no CD73 enzyme were used as negative control. The percent (%) inhibition at each concentration of compound was calculated based on and relative to the signal in the High and Low control wells contained within each assay plate. The High control wells were considered as 0% inhibition, and the low control wells, which didn't contain any compound but rather DMSO (final concentration=0.5%), as 100% inhibition. IC50 values were obtained using GraphPad Prism software.
# Recombinant human 5′-nucleotidase (hCD73), sequence (P21589 27-574): as above
row,Structure (SMILES),pIC50
1,"O=P(O)(O)CP(=O)(O)OC[C@H]1O[C@@H](n2cnc3c(N4CCC5(CCCCC5)C4)nc(Cl)nc32)[C@@H](O)C1O (stereo partly shown) [Compound b, reference compound]",8.97
2,O=P(O)(O)CP(=O)(O)OC[C@H]1O[C@@H](n2cnc3c(N4CC5(CCCCC5)c5ccccc54)nc(Cl)nc32)[C@@H](O)C1O (stereo partly drawn) [d-7],8.74
3,O=P(O)(O)CP(=O)(O)OC[C@H]1O[C@@H](n2cnc3c(N4CCC5(CCc6ccccc65)C4)nc(Cl)nc32)[C@@H](O)C1O (stereo partly drawn) [d-8],9.12
4,O=P(O)(O)CP(=O)(O)OC[C@H]1O[C@@H](n2cnc3c(N4CC5(CCCC5)c5ccccc54)nc(Cl)nc32)[C@@H](O)C1O (stereo partly drawn) [d-13],8.82
5,O=P(O)(O)CP(=O)(O)OC[C@H]1O[C@@H](n2cnc3c(N4CC(c5ccccc5)(c5ccccc5)C4)nc(Cl)nc32)[C@@H](O)C1O (stereo partly drawn) [d-35],8.86
6,O=P(O)(O)CP(=O)(O)OC[C@H]1O[C@@H](n2cnc3c(N4CC(c5ccccc5)C(c5ccccc5)C4)nc(Cl)nc32)[C@@H](O)C1O (stereo partly drawn) [d-36],8.73

# The remaining lines, values ahead:
row,pIC50,Structure (SMILES)
1,8.72,O=P(O)(O)CP(=O)(O)OC[C@H]1O[C@@H](n2cnc3c(N4CC(c5ccccc5)c5ccccc54)nc(Cl)nc32)[C@@H](O)C1O (stereo partly drawn) [Compound d-38]
2,9.33,O=P(O)(O)CP(=O)(O)OC[C@H]1O[C@@H](n2cnc3c(N4CC5(CCc6ccccc65)C4)nc(Cl)nc32)[C@@H](O)C1O (stereo partly drawn) [d-1]
3,9.14,O=P(O)(O)CP(=O)(O)OC[C@H]1O[C@@H](n2cnc3c(N4CC5(Cc6ccccc6C5)C4)nc(Cl)nc32)[C@@H](O)C1O (stereo partly drawn) [d-9]
4,9.40,O=P(O)(O)CP(=O)(O)OC[C@H]1O[C@@H](n2cnc3c(N4CC5(CCCc6ccccc65)C4)nc(Cl)nc32)[C@@H](O)C1O (stereo partly drawn) [d-12]
5,8.89,O=P(O)(O)CP(=O)(O)OC[C@H]1O[C@@H](n2cnc3c(N4CC5(CCC5)c5ccccc54)nc(Cl)nc32)[C@@H](O)C1O (stereo partly drawn) [d-20]
